Reference: patent publication EP3782997A1, “FUSED PYRIMIDINE COMPOUNDS AND PHARMACEUTICAL COMPOSITIONS THEREOF FOR THE TREATMENT OF FIBROTIC DISEASES” (Galapagos N.V., priority 2019, dated 2021)

target: hENPP2 (Homo sapiens, UniProt Q13822); assay: Human ENPP2 (hENPP2) biochemical assay using LPC as substrate; conditions: 150 µM LPC (palmitoyl 16:0), 37°C for 30 min
In short: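 Enzyme at 1 or 3 µg/mL final in Tris-HCl pH 8.5, NaCl, KCl, CaCl2, fatty-acid-free BSA; reaction started with 150 µM LPC 16:0 (as added), 30 min at 37°C. Released choline developed with choline oxidase/peroxidase/TOOS/4-aminoantipyrine plus EGTA stop, read at 555 nm after 30 min; 1/3 dilutions from 50 µM give IC50.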

SMILES	IC50 [nM]
Cc1cc(C)cc(Nc2ncc3c(n2)CN(C2(C)CCN(C(=O)c4cc5nn[nH]c5cc4F)CC2)C3)c1 [compound 194, [4-[2-(3,5-dimethylanilino)-5,7-dihydropyrrolo[3,4-d]pyrimidin-6-yl]-4-methyl-1-piperidyl]-(6-fluoro-1H-benzotriazol-5-yl)methanone]	> 1000
Cc1cc(C)cc(Nc2ncc3c(n2)CN([C@@H]2CCN(C(=O)c4ccnc(N)c4)[C@H](C)C2)C3)c1 [compound 198, (2-amino-4-pyridyl)-[(2R,4R)-4-[2-(3,5-dimethylanilino)-5,7-dihydropyrrolo[3,4-d]pyrimidin-6-yl]-2-methyl-1-piperidyl]methanone]	> 1000
Cc1cc(C)cc(Nc2ncc3c(n2)CCN(C2CCN(C(=O)C4CCN(c5cc6nn[nH]c6cc5C)CC4)CC2)C3)c1 [compound 199, [4-[2-(3,5-dimethylanilino)-7,8-dihydro-5H-pyrido[4,3-d]pyrimidin-6-yl]-1-piperidyl]-[1-(6-methyl-1H-benzotriazol-5-yl)-4-piperidyl]methanone]	> 1000
Cc1cccc(Nc2ncc3c(n2)CN([C@@H]2CCN(C(=O)c4ccnc(NS(C)(=O)=O)c4)[C@H](C)C2)C3)c1 [compound 203, N-[4-[(2R,4R)-2-methyl-4-[2-(3-methylanilino)-5,7-dihydropyrrolo[3,4-d]pyrimidin-6-yl]piperidine-1-carbonyl]-2-pyridyl]methanesulfonamide]	0.01 to 100
COc1cc(F)cc(Nc2ncc3c(n2)CN([C@@H]2CCN(C(=O)c4ccnc(NS(C)(=O)=O)c4)[C@H](C)C2)C3)c1 [compound 204, N-[4-[(2R,4R)-4-[2-(3-fluoro-5-methoxy-anilino)-5,7-dihydropyrrolo[3,4-d]pyrimidin-6-yl] -2-methyl-piperidine-1-carbonyl]-2-pyridyl]methanesulfonamide]	100 to 500

Results, then the compound that gave them:

IC50 [nM]	SMILES
0.01 to 100	C[C@@H]1C[C@H](N2Cc3cnc(Nc4ccc(S(F)(F)(F)(F)F)cc4)nc3C2)CCN1C(=O)c1cc2nn[nH]c2cc1F [compound 195, (6-fluoro-1H-benzotriazol-5-yl)-[(2R,4R)-2-methyl-4-[2-[4-(pentafluoro-λ^6-sulfanyl)anilino]-5,7-dihydropyrrolo[3,4-d]pyrimidin-6-yl]-1-piperidyl]methanone]
0.01 to 100	C[C@@H]1C[C@@H](N2Cc3cnc(Nc4ccc(S(F)(F)(F)(F)F)cc4)nc3C2)CCN1C(=O)c1cc2nn[nH]c2cc1F [compound 196, (6-fluoro-1H-benzotriazol-5-yl)-[(2R,4S)-2-methyl-4-[2-[4-(pentafluoro-λ^6-sulfanyl)anilino] -5,7-dihydropyrrolo[3,4-d]pyrimidin-6-yl]-1-piperidyl]methanone]
0.01 to 100	COc1cc(F)cc(Nc2ncc3c(n2)CN([C@@H]2CCN(C(=O)c4cc5nn[nH]c5cc4F)[C@H](C)C2)C3)c1 [compound 197, (6-fluoro-1H-benzotriazol-5-yl)-[(2R,4R)-4-[2-(3-fluoro-5-methoxy-anilino)-5,7-dihydropyrrolo[3,4-d]pyrimidin-6-yl]-2-methyl-1-piperidyl] methanone]
0.01 to 100	COc1cc(Nc2ncc3c(n2)CN([C@@H]2CCN(C(=O)c4ccnc(NS(C)(=O)=O)c4)[C@H](C)C2)C3)cc(OC)c1 [compound 200, N-[4-[(2R,4R)-4-[2-(3,5-dimethoxyanilino)-5,7-dihydropyrrolo[3,4-d]pyrimidin-6-yl]-2-methyl-piperidine-1-carbonyl]-2-pyridyl]methanesulfonamide]
0.01 to 100	CS(=O)(=O)Nc1cc(C(=O)N2CCC(N3Cc4cnc(Nc5ccc(C(F)(F)F)cc5)nc4C3)CC2)ccn1 [compound 201, N-[4-[4-[2-[4-(trifluoromethyl)anilino]-5,7-dihydropyrrolo[3,4-d]pyrimidin-6-yl]piperidine-1-carbonyl]-2-pyridyl]methanesulfonamide]
0.01 to 100	Cc1cc(C)cc(Nc2ncc3c(n2)CN(C2CCN(C(=O)c4ccnc(NS(C)(=O)=O)c4)CC2)C3)c1 [compound 202, N-[4-[4-[2-(3,5-dimethylanilino)-5,7-dihydropyrrolo[3,4-d]pyrimidin-6-yl]piperidine-1-carbonyl]-2-pyridyl]methanesulfonamide]
